Source: ChEMBL document CHEMBL1144029, “Characterization of type II ligands in CYP2C9 and CYP3A4” (J Med Chem, 2008)

Tests used:
Cytochrome P450 3A4 [1] = target: T1, Cytochrome P450 3A4 (Homo sapiens, UniProt P08684); assay: Inhibition of human recombinant CYP3A4 expressed in Saccharomyces cerevisiae by fluorescence assay; assay type: ADME
Cytochrome P450 2C9 [2] = target: T2, Cytochrome P450 2C9 (Homo sapiens, UniProt P11712); assay: Inhibition of human recombinant CYP2C9 expressed in Saccharomyces cerevisiae by fluorescence assay; assay type: ADME
T2 sequence (P11712 whole entry): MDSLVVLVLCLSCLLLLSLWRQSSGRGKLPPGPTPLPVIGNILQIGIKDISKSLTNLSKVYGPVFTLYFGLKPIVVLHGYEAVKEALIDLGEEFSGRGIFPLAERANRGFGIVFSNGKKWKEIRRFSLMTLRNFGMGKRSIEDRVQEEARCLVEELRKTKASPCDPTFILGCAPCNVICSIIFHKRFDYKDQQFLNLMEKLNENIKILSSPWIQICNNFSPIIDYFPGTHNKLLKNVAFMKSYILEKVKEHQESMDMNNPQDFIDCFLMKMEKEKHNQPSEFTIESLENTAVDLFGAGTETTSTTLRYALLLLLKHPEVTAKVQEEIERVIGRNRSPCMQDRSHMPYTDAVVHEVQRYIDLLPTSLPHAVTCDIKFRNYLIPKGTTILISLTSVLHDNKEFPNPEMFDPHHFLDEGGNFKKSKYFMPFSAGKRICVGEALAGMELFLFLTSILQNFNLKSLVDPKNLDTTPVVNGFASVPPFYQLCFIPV

Cytochrome P450 3A4 [3] = target: T1, Cytochrome P450 3A4; assay: Binding affinity to purified human recombinant CYP3A4 expressed in Escherichia coli assessed as spectral dissociation constant; assay type: ADME
Homo sapiens = species: Homo sapiens; assay: Selectivity for human recombinant CYP2C9 over human recombinant CYP3A4
Cytochrome P450 2C9 [4] = target: T2, Cytochrome P450 2C9; assay: Binding affinity to purified human recombinant CYP2C9 expressed in Escherichia coli assessed as spectral dissociation constant; assay type: ADME

T1 sequence (P08684 whole entry): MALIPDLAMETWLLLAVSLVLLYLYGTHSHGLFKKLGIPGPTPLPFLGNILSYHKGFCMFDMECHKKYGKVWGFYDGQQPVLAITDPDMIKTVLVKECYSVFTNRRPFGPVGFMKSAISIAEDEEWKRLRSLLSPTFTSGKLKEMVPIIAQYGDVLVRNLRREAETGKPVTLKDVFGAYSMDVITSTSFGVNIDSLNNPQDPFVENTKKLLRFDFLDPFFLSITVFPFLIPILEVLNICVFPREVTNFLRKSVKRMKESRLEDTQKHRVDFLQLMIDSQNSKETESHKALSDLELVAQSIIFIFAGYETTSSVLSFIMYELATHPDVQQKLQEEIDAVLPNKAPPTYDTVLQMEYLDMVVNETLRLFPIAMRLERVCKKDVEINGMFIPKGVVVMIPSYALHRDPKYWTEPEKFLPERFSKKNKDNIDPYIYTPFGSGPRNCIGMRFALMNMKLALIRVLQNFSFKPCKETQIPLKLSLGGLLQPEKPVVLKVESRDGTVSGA

Compound | IC50 (Cytochrome P450 3A4 [1]) [µM] | IC50 (Cytochrome P450 2C9 [2]) [µM] | Selectivity ratio (Homo sapiens) | Kd (Cytochrome P450 3A4 [3]) [µM] | Kd (Cytochrome P450 2C9 [4]) [µM]
Clc1ccc(C2(Cn3cncn3)CC(Br)CO2)c(Cl)c1 (centres undefined) [BROMUCONAZOLE] | 0.13 | 8.1 | – | – | –
CCOC(=O)C(Cc1ccc(Cl)cc1Cl)c1ccno1 (centres undefined) | 12 | 11 | – | – | –
CS(=O)(=O)OCC1COC(Cn2cncn2)(c2ccc(Cl)cc2Cl)O1 (centres undefined) | 7.7 | > 50 | – | 3.5 | –
Clc1ccc(OC(Cn2ccnc2)c2ccc(Cl)cc2Cl)c(Cl)c1 (centres undefined) | 0.06 | 10 | – | – | –
COC(=O)[C@H](Cc1cnc[nH]1)NCc1ccccc1 | 1.5 | 20 | – | – | –
Cc1cnc(CNc2cc(-c3ccccc3)nc(-c3ccccn3)n2)nc1 | > 40 | > 50 | – | – | –
Cc1cc(C(C)(C)NC(=O)C(Br)C(C)(C)C)cc(C)n1 (centres undefined) | 13 | > 50 | – | – | –
Clc1ccc(Cn2cc(-c3ccncc3)cn2)c(Cl)c1 | 0.23 | 0.5 | – | 0.38 | 3.6
CCC1COC(Cn2cncn2)(c2ccc(Cl)cc2Cl)O1 (centres undefined) [ETACONAZOLE] | 0.21 | > 50 | – | 0.21 | –

Further lines, with some results ahead:

IC50 (Cytochrome P450 3A4 [1]) [µM] | IC50 (Cytochrome P450 2C9 [2]) [µM] | Selectivity ratio (Homo sapiens) | Compound | Kd (Cytochrome P450 3A4 [3]) [µM] | Kd (Cytochrome P450 2C9 [4]) [µM]
33 | 39 | – | COc1ccc(-c2cc(CNS(=O)(=O)c3ccccc3)on2)cc1 | – | –
28 | > 50 | – | CCn1c(SCc2ccc(OC)cc2)nnc1-c1ccncc1 | – | –
> 40 | > 50 | – | CS(=O)(=O)Cc1cc(N2CCCC2)nc(-c2ccccc2)n1 | – | –
1.3 | > 50 | – | CS(=O)(=O)Cc1cc(N2CCCC2)nc(-c2ccncc2)n1 | – | –
0.071 | 4.8 | – | Cc1cnc(CNc2cc(-c3ccccc3)nc(-c3ccncc3)n2)nc1 | – | –
34 | > 30 | – | CCOc1ccc(NC(=O)c2ccc(-n3cnnn3)cc2)cc1 | – | –
44 | > 50 | – | O[C@](Cn1cccn1)(c1ccc(F)cc1F)n1cncn1 | – | –
> 20 | – | – | O=C(Nc1ccccc1)OCc1cn(-c2ccc(Cl)cc2)nn1 | – | –
26 | 1.3 | 20 | CS(=O)(=O)c1ccc(Cn2cc(-c3ccncc3)cn2)cc1 | – | –
1.3 | 4.3 | – | Brc1ccc(-n2c(SCc3ccccc3)nnc2-c2ccncc2)cc1 | – | –
9.6 | 21 | – | Cc1cnc(CNc2cc(-c3ccccc3)nc(-c3cccnc3)n2)nc1 | – | –
